Measurements taken from US8420341B2, “Methods for measuring ADP” (Genewiz Inc., Suzhou, priority 2007, dated 2013).

Target: PKA (Homo sapiens, UniProt P17612)
Test: PKA kinase reaction, ADP luminescent enzyme-coupled assay
Format: biochemical
Conditions: 5 μM ATP, 30 μM Kemptide, 2.5 nM PKA, 90 minutes at room temperature; FIGS. 4A-4B
Procedure: Assay Procedures 1. Add 10 μl reagent A to 30 μl kinase reaction mixtures and incubate at RT. 2. Add 10 μl reagent B and read luminescence immediately.
At the end of incubation, 10 μl Reagent B were added and luminescence was measured. Each data point represents the average of 3 repeats.

In the case of `O=S(=O)(NCCNC/C=C/c1ccc(Br)cc1)c1cccc2cnccc12` [H89], the “luminescence signals (PKA activity) with increasing amounts of inhibitor” value is reported as “decreased luminescence signals in a dose dependent manner”.
